The target in test [1] is T1, Interstitial collagenase (Homo sapiens, UniProt P03956).
T1 sequence (P03956 whole entry): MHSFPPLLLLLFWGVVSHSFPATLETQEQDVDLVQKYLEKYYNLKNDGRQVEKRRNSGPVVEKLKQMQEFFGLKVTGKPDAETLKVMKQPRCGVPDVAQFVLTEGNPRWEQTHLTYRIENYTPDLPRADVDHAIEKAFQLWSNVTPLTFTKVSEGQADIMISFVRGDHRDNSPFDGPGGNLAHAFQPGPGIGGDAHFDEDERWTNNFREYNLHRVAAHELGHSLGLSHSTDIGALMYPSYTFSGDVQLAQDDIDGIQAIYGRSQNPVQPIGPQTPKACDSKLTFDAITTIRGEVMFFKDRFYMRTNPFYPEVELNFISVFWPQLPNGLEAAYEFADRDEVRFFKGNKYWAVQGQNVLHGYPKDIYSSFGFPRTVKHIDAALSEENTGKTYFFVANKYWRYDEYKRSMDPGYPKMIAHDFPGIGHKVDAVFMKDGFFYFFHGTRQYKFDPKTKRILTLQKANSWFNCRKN
Kind of test: In vitro inhibitory activity against matrix metalloprotease 1.

The target in test [2] is Matrix metalloproteinase-9 (Rattus norvegicus, UniProt P50282). Nature of the test: In vitro inhibitory activity against matrix metalloprotease-9.
The target of test [3] is T1, Interstitial collagenase. Kind of test: Inhibition of matrix metalloprotease 1 (MMP 1).
Test [4] concerns Rattus norvegicus. Kind of test: Drug level in plasma was determined 4 hours after administration to 2 rats orally at 75 umol/kg. It counts as functional, organism-based.
In test [5] the test system is Rattus norvegicus. Nature of the test: Drug level in plasma was determined 2 hours after administration to 2 rats orally at 75 umol/kg. It counts as functional, organism-based.
Test [6] has as its system Rattus norvegicus. Kind of test: Drug level in plasma was determined 2 hours after administration to 3 rats orally at 75 umol/kg. The test is classed as functional, organism-based.
The test system of test [7] is Rattus norvegicus. Nature of the test: Drug level in plasma was determined 4 hours after administration to 3 rats orally at 75 umol/kg. It counts as functional, organism-based.

Chain of Matrix metalloproteinase-9 (P50282 whole entry): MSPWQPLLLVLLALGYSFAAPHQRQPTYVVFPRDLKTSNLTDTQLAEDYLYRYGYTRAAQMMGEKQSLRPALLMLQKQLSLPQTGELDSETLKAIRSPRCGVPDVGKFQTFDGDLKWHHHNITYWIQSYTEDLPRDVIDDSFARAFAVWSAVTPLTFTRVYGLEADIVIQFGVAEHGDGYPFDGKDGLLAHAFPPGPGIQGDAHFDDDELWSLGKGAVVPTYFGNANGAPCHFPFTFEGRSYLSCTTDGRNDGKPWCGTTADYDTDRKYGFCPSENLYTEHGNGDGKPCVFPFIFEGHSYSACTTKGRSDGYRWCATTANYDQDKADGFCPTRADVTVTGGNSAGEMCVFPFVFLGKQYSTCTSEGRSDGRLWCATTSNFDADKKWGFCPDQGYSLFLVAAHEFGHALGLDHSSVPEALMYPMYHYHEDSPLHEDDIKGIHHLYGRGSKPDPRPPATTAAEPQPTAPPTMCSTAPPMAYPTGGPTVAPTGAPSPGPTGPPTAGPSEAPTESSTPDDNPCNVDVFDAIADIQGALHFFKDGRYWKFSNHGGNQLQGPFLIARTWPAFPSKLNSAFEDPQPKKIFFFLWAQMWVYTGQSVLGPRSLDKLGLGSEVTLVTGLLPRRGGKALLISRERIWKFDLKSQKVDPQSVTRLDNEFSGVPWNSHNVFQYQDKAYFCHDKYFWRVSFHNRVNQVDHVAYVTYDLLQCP

Consider `CCO[C@H]1CC[C@@](CS)(C(=O)N[C@@H](Cc2ccccc2)C(=O)Nc2ccc(F)cc2)CC1`, for which the results for the IC50 in test [1] and in test [2] were 2150 nM and 52 nM, respectively.

Consider `CCO[C@H]1CC[C@@](CS)(C(=O)N[C@@H](Cc2ccccc2)C(=O)Nc2ccccc2)CC1` (stereo in doubt; 13), for which the IC50 in test [1] came out at 1220 nM; in test [2], 49 nM.

`CCO[C@H]1CC[C@@](CS)(C(=O)N[C@@H](Cc2ccccc2)C(=O)NC(C)C)CC1`: the values for the IC50 in test [1] and in test [2] were 680 nM and 40 nM, respectively.

For the molecule `CCO[C@H]1CC[C@@](CS)(C(=O)N[C@@H](Cc2ccc(F)cc2)C(=O)Nc2ccccc2)CC1`, the IC50 was 6260 nM in test [1] and 83 nM in test [2].

With `CCO[C@H]1CC[C@@](CS)(C(=O)N[C@@H](Cc2ccccc2)C(=O)NC2CCCC2)CC1`, the IC50 was 561 nM in test [1] and 24 nM in test [2].

Consider `CCO[C@H]1CC[C@@](CS)(C(=O)N[C@@H](Cc2ccc(OC)cc2)C(=O)Nc2ccccc2)CC1`, for which the results for the IC50 in test [2] and in test [3] were 20 nM and 1060 nM, respectively.

`CNC(=O)[C@H](Cc1ccccc1)NC(=O)[C@]1(CS)CC[C@H](C(C)(C)C)CC1`: in test [2], the IC50 is > 10000 nM.

On to `CNC(=O)[C@H](Cc1ccccc1)NC(=O)[C@]1(CS)CC[C@H](OC)CC1`, for which the results for the IC50 in test [1] and in test [2] were 110 nM and 35 nM, respectively.

`CCO[C@H]1CC[C@@](CS)(C(=O)N[C@@H](Cc2ccccc2)C(=O)Nc2cccnc2)CC1`: the IC50 in test [1] came out at 135 nM; in test [2], 17 nM. For the same molecule, the figures for the Plasma concentration in test [4] and in test [5] were 289 nM and 253 nM, respectively.

Take `CCO[C@H]1CC[C@@](CS)(C(=O)N[C@@H](Cc2ccccc2)C(=O)Nc2ccccc2)CC1` (stereo in doubt; 14): in test [2], the IC50 is > 10000 nM.

`CCO[C@H]1CC[C@@](CS)(C(=O)N[C@@H](Cc2ccccc2)C(=O)Nc2ccc(OC)cc2)CC1`: the IC50 is 1270 nM in test [1] and 46 nM in test [2].

Regarding `CNC(=O)[C@H](Cc1ccccc1)NC(=O)[C@]1(CS)CC[C@H](C(F)(F)F)CC1`, the IC50 is 669 nM in test [1] and 108 nM in test [2].

With `CCO[C@H]1CC[C@@](CS)(C(=O)N[C@@H](Cc2cccnc2)C(=O)Nc2ccccc2)CC1`, the IC50 was 564 nM in test [1] and 21 nM in test [2].

As for `CCO[C@H]1CC[C@@](CS)(C(=O)N[C@@H](Cc2ccccc2)C(=O)NC)CC1`, the IC50 in test [1] amounted to 700 nM; in test [2] it was 18 nM.

For `CCC[C@H]1CC[C@@](CS)(C(=O)N[C@@H](Cc2ccccc2)C(=O)NC)CC1`, the concentration for half-maximal inhibition (IC50) in test [2] is > 10000 nM.

Regarding `CCO[C@H]1CC[C@@](CS)(C(=O)N[C@@H](Cc2ccccc2)C(=O)Nc2ccc(OC(F)(F)F)cc2)CC1`, the IC50 was > 10000 nM in test [1] and 81 nM in test [2].

`CCO[C@H]1CC[C@@](CS)(C(=O)N[C@@H](Cc2ccccc2)C(=O)NCc2ccccc2)CC1`: the half-inhibitory concentration (IC50) worked out at 823 nM in test [1] and 26 nM in test [2]. The Plasma concentration in test [6] came to 837 nM; in test [7], 491 nM.

`CCO[C@H]1CC[C@@](CS)(C(=O)N[C@@H](Cc2cccs2)C(=O)Nc2ccccc2)CC1`: the results for the IC50 in test [1] and in test [2] were 953 nM and 42 nM, respectively.

`CCO[C@H]1CC[C@@](CS)(C(=O)N[C@@H](Cc2ccccc2)C(=O)Nc2ccc(N(C)C)cc2)CC1`: the values for the IC50 in test [1] and in test [2] were 1330 nM and 63 nM, respectively.

As to `CNC(=O)[C@H](Cc1ccccc1)NC(=O)[C@@]1(CS)CCCC(OC)C1` (stereo partly specified), the IC50 in test [2] is > 10000 nM.

Regarding `CCOc1ccc(C[C@H](NC(=O)[C@]2(CS)CC[C@H](OCC)CC2)C(=O)Nc2ccccc2)cc1`, the IC50 worked out at 3270 nM in test [1] and 34 nM in test [2].

Turning to `CCCO[C@H]1CC[C@@](CS)(C(=O)N[C@@H](Cc2ccccc2)C(=O)NC)CC1`, the IC50 in test [1] came to 6030 nM; in test [2], 630 nM.

`CCO[C@H]1CC[C@@](CS)(C(=O)N[C@@H](Cc2ccc(Cl)cc2)C(=O)Nc2ccccc2)CC1`: the IC50 in test [1] was determined as 1940 nM; in test [2], 66 nM.

On to `CCO[C@H]1CC[C@@](CS)(C(=O)N[C@@H](Cc2ccccc2)C(=O)Nc2ccccn2)CC1`, for which the IC50 turned out to be 3470 nM in test [1] and 121 nM in test [2].

Turning to `CCO[C@H]1CC[C@@](CS)(C(=O)N[C@@H](Cc2ccccc2)C(=O)NC2CCCCC2)CC1`, the IC50 in test [1] was found to be 2930 nM; in test [2], 79 nM.

Turning to `CCO[C@H]1CC[C@@](CS)(C(=O)N[C@@H](Cc2ccc(O)cc2)C(=O)Nc2ccccc2)CC1`, the IC50 in test [1] turned out to be 739 nM; in test [2], 14 nM.

With `CCO[C@H]1CC[C@@](CS)(C(=O)N[C@@H](Cc2ccccc2)C(=O)Nc2ccc(Cl)cc2)CC1`, the IC50 in test [1] was determined as 5910 nM; in test [2], 79 nM.

For the molecule `CNC(=O)[C@H](Cc1ccccc1)NC(=O)C1(CS)CCCCC1`, the IC50 in test [1] is 5030 nM; in test [2], 350 nM.

For the origin of these results see ChEMBL document CHEMBL1132018, “Design and synthesis of thiol containing inhibitors of matrix metalloproteinases” (Bioorg Med Chem Lett, 1999).
